Source: PMC10509173, “Deep learning driven de novo drug design based on gastric proton pump structures” (Communications Biology, 2023)
“And” between values parts separate entries of the source, which are not always exact repeats. Identical values can stand only once.

Tests used:
H+,K+-ATPase [1] = test system: H+,K+-ATPase; design: method as in PMID 35604136, PMID 28747707; settings: cited from earlier work
H+,K+-ATPase [2] = molecular target: T1, H+,K+-ATPase (Sus scrofa, UniProt P19156); assay: Dose-dependent inhibition of H+,K+-ATPase activity, membrane fractions; settings: for H+,K+-ATPase activity, raw data of dose-dependent inhibition: single replicate values
H+,K+-ATPase [3] = molecular target: T1, H+,K+-ATPase; assay: K+-dependent ATPase assay, double reciprocal plot and Ki estimation; type: biochemical, pig; design: H^+,K^+-ATPase-enriched membrane fractions were purified from pig stomach; from tissue; host or cells: pig stomach (gastric membrane fractions); reciprocal K+-stimulated ATPase activity, Lineweaver-Burk raw data: unit not given here; settings: for reciprocal K+-stimulated ATPase activity, Lineweaver-Burk raw data: replicate values
Source text: Data measured from 96-well plate contained triplicates of four different sets of K^+-dependent ATPase assays in the absence or presence of three different concentrations of synthesized compounds. Data were corrected for background values in the absence of K^+ at each compound concentration, and plot them against the double reciprocal axes in Supplementary Fig. 5. Data were also fitted by using simultaneous nonlinear regression as described previously to estimate their Ki values.

T1 sequence (P19156 2-1034 limits assumed): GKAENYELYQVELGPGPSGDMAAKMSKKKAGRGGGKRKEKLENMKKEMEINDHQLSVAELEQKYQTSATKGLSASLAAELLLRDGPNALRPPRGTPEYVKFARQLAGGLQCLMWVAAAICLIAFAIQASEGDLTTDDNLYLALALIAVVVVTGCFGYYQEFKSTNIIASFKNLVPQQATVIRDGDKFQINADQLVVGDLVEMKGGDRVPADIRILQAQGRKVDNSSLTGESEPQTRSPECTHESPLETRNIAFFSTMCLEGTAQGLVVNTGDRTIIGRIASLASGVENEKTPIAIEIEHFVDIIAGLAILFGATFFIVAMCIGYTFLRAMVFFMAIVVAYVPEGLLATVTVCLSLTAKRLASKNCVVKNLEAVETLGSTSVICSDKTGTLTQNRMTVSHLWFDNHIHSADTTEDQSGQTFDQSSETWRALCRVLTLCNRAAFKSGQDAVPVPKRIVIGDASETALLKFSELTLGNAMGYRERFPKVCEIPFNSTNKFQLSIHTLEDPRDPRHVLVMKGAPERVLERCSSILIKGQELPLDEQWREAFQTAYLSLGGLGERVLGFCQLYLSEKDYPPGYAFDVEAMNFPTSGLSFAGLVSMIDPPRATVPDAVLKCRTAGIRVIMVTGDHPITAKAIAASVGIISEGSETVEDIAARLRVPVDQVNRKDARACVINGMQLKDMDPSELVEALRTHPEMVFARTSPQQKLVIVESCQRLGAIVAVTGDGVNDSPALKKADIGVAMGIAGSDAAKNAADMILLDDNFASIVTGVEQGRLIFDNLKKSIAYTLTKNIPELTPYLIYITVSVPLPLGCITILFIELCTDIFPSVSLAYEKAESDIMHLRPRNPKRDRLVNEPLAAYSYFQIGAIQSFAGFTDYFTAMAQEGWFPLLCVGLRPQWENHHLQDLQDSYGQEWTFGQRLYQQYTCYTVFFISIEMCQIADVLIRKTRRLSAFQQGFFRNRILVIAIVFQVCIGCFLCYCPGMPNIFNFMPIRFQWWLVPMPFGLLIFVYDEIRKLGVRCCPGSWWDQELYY
T1 sequence (P18434 whole entry partner): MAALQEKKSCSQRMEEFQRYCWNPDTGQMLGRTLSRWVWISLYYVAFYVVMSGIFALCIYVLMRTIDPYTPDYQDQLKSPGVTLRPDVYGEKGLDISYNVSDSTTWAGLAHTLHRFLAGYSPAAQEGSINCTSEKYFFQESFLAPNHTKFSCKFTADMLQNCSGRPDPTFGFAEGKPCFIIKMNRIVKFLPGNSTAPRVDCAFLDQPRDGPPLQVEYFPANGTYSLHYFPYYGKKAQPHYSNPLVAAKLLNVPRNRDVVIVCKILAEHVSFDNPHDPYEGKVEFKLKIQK

Structure (SMILES): Cc1nc2c3c(ccn2c1C)[C@@H](O)[C@H](O)[C@@H](c1ccccc1)N3 [BYK99]
- times higher apparent affinity than SCH28080 (H+,K+-ATPase [1]): more than 25 times

Structure (SMILES): CNCC#CCOCc1cc(Cl)ccc1-c1ccc(Cl)cc1 [DQ-02]
- IC50 (H+,K+-ATPase [2]): 39.9 ± 3.3 µM
- H+,K+-ATPase activity, raw data of dose-dependent inhibition (H+,K+-ATPase [2]; [PCAB] -3.30103 (log, unit not given)): -3.48 and -2.88 and 2.99 and 4.4 and 2.96 and 5.89
- H+,K+-ATPase activity, raw data of dose-dependent inhibition (H+,K+-ATPase [2]; [PCAB] -3.52288 (log, unit not given)): 0.86 and 1.16 and 4.19 and 5.19 and 4.89 and 4.75
- H+,K+-ATPase activity, raw data of dose-dependent inhibition (H+,K+-ATPase [2]; [PCAB] -4 (log, unit not given)): 42.01 and 43.89 and 31.47 and 31.59 and 28.65 and 29.6
- H+,K+-ATPase activity, raw data of dose-dependent inhibition (H+,K+-ATPase [2]; [PCAB] -4.30103 (log, unit not given)): 44.62 and 46.8 and 48.6 and 46.17 and 46.72 and 37.34
- H+,K+-ATPase activity, raw data of dose-dependent inhibition (H+,K+-ATPase [2]; [PCAB] -4.52288 (log, unit not given)): 56.61 and 55.53 and 56.64 and 57.99 and 58.21 and 59.24
- H+,K+-ATPase activity, raw data of dose-dependent inhibition (H+,K+-ATPase [2]; [PCAB] -5 (log, unit not given)): 76.31 and 74.65 and 77.66 and 80.01 and 78.54 and 73.73
- H+,K+-ATPase activity, raw data of dose-dependent inhibition (H+,K+-ATPase [2]; [PCAB] -5.52288 (log, unit not given)): 94.23 and 90.64 and 95.59 and 93.89 and 93 and 95.88
- H+,K+-ATPase activity, raw data of dose-dependent inhibition (H+,K+-ATPase [2]; [PCAB] -6 (log, unit not given)): 97.7 and 98.02 and 94.2 and 97.49 and 93.51 and 99.15
- H+,K+-ATPase activity, raw data of dose-dependent inhibition (H+,K+-ATPase [2]; [PCAB] -6.30103 (log, unit not given)): 97.98 and 96.67 and 103.79 and 104.81 and 106.59 and 107.52
- H+,K+-ATPase activity, raw data of dose-dependent inhibition (H+,K+-ATPase [2]; [PCAB] -7 (log, unit not given)): 99.57 and 99.45 and 98.18 and 98.05 and 96.63 and 99.09
- H+,K+-ATPase activity, raw data of dose-dependent inhibition (H+,K+-ATPase [2]; [PCAB] -8 (log, unit not given)): 97.5 and 100.13 and 97.23 and 97.51 and 96.21 and 102.69
- H+,K+-ATPase activity, raw data of dose-dependent inhibition (H+,K+-ATPase [2]; [PCAB] -11 (log, unit not given; possibly placeholder for no compound)): 99.85 and 98.59 and 101.41 and 99.82 and 98.22 and 99.87
- reciprocal K+-stimulated ATPase activity, Lineweaver-Burk raw data (H+,K+-ATPase [3]; compound concentration 5, 1/KCl 0.05 (units not given)): 0.0047 and 0.0046 and 0.005
- reciprocal K+-stimulated ATPase activity, Lineweaver-Burk raw data (H+,K+-ATPase [3]; compound concentration 5, 1/KCl 0.1 (units not given)): 0.0059 and 0.0058 (2×)
- reciprocal K+-stimulated ATPase activity, Lineweaver-Burk raw data (H+,K+-ATPase [3]; compound concentration 5, 1/KCl 0.125 (units not given)): 0.0059 (2×) and 0.006
- reciprocal K+-stimulated ATPase activity, Lineweaver-Burk raw data (H+,K+-ATPase [3]; compound concentration 5, 1/KCl 0.2 (units not given)): 0.0059 (2×) and 0.0061
- reciprocal K+-stimulated ATPase activity, Lineweaver-Burk raw data (H+,K+-ATPase [3]; compound concentration 5, 1/KCl 0.5 (units not given)): 0.0114 and 0.0113 and 0.0109
- reciprocal K+-stimulated ATPase activity, Lineweaver-Burk raw data (H+,K+-ATPase [3]; compound concentration 5, 1/KCl 1 (units not given)): 0.0177 and 0.0175 and 0.0166
- reciprocal K+-stimulated ATPase activity, Lineweaver-Burk raw data (H+,K+-ATPase [3]; compound concentration 5, 1/KCl 2 (units not given)): 0.0312 and 0.0335 and 0.0294
- reciprocal K+-stimulated ATPase activity, Lineweaver-Burk raw data (H+,K+-ATPase [3]; compound concentration 10, 1/KCl 0.05 (units not given)): 0.0052
- reciprocal K+-stimulated ATPase activity, Lineweaver-Burk raw data (H+,K+-ATPase [3]; compound concentration 10, 1/KCl 0.1 (units not given)): 0.0066 and 0.0067 and 0.0069
- reciprocal K+-stimulated ATPase activity, Lineweaver-Burk raw data (H+,K+-ATPase [3]; compound concentration 10, 1/KCl 0.125 (units not given)): 0.0073 and 0.0075 and 0.0074
- reciprocal K+-stimulated ATPase activity, Lineweaver-Burk raw data (H+,K+-ATPase [3]; compound concentration 10, 1/KCl 0.2 (units not given)): 0.0079 and 0.0078 and 0.0077
- reciprocal K+-stimulated ATPase activity, Lineweaver-Burk raw data (H+,K+-ATPase [3]; compound concentration 10, 1/KCl 0.5 (units not given)): 0.0173 and 0.016 and 0.018
- reciprocal K+-stimulated ATPase activity, Lineweaver-Burk raw data (H+,K+-ATPase [3]; compound concentration 10, 1/KCl 1 (units not given)): 0.0258 (2×) and 0.029
- reciprocal K+-stimulated ATPase activity, Lineweaver-Burk raw data (H+,K+-ATPase [3]; compound concentration 10, 1/KCl 2 (units not given)): 0.0498 and 0.0514 and 0.0558
- reciprocal K+-stimulated ATPase activity, Lineweaver-Burk raw data (H+,K+-ATPase [3]; compound concentration 40, 1/KCl 0.05 (units not given)): 0.0101 and 0.0102 and 0.0088
- reciprocal K+-stimulated ATPase activity, Lineweaver-Burk raw data (H+,K+-ATPase [3]; compound concentration 40, 1/KCl 0.1 (units not given)): 0.0146 and 0.0158 and 0.0151
- reciprocal K+-stimulated ATPase activity, Lineweaver-Burk raw data (H+,K+-ATPase [3]; compound concentration 40, 1/KCl 0.125 (units not given)): 0.0175 and 0.0157 and 0.013
- reciprocal K+-stimulated ATPase activity, Lineweaver-Burk raw data (H+,K+-ATPase [3]; compound concentration 40, 1/KCl 0.2 (units not given)): 0.0176 and 0.0181 and 0.0182
- reciprocal K+-stimulated ATPase activity, Lineweaver-Burk raw data (H+,K+-ATPase [3]; compound concentration 40, 1/KCl 0.5 (units not given)): 0.0393 and 0.036 and 0.0314
- reciprocal K+-stimulated ATPase activity, Lineweaver-Burk raw data (H+,K+-ATPase [3]; compound concentration 40, 1/KCl 1 (units not given)): 0.0754 and 0.0762 and 0.0737
- reciprocal K+-stimulated ATPase activity, Lineweaver-Burk raw data (H+,K+-ATPase [3]; compound concentration 40, 1/KCl 2 (units not given)): 0.1646 and 0.1689 and 0.18
- Ki (H+,K+-ATPase [3]; double reciprocal plot analysis, K+-competitive, read-out: estimated inhibition constant Ki): 4.65 µM
- inhibition mode (H+,K+-ATPase [3]; double reciprocal plot, versus K+): typical competitive inhibition pattern
